In ChEMBL document CHEMBL3739350, “Novel hydrazone moiety-bearing aminopyrimidines as selective inhibitors of epidermal growth factor receptor T790M mutant” (Eur J Med Chem, 2015):

Assays:
[1] = system: HT-29; assay: cells; format: functional, cell-based; conditions: Homo sapiens, HT-29, 72 h
Description: Cytotoxicity against human HT-29 cells assessed as inhibition of cell proliferation after 72 hrs by MTT assay

[2] = system: NCI-H1975; assay: cells; format: functional, cell-based; conditions: Homo sapiens, NCI-H1975, 72 h
[3] = system: A549; assay: Antiproliferative activity against human A549 cells harboring wild type EGFR/k-Ras mutation after 72 hrs by MTT assay; format: functional, cell-based; conditions: A549, 72 h
[4] = biological target: Epidermal growth factor receptor (Homo sapiens, UniProt P00533, L858R/T790M); format: protein assay
[5] = biological target: Epidermal growth factor receptor (Homo sapiens, UniProt P00533, T790M); format: protein assay
[6] = biological target: Epidermal growth factor receptor (Homo sapiens, UniProt P00533, DELE746/T790M); format: protein assay
[7] = biological target: Epidermal growth factor receptor (Homo sapiens, UniProt P00533); assay: Inhibition of wild type recombinant human EGFR preincubated for 10 mins followed by FAM-labeled peptide/ATP addition measured after 1 hr by mobility shift assay
Epidermal growth factor receptor (Homo sapiens, UniProt P00533), sequence (P00533 whole entry): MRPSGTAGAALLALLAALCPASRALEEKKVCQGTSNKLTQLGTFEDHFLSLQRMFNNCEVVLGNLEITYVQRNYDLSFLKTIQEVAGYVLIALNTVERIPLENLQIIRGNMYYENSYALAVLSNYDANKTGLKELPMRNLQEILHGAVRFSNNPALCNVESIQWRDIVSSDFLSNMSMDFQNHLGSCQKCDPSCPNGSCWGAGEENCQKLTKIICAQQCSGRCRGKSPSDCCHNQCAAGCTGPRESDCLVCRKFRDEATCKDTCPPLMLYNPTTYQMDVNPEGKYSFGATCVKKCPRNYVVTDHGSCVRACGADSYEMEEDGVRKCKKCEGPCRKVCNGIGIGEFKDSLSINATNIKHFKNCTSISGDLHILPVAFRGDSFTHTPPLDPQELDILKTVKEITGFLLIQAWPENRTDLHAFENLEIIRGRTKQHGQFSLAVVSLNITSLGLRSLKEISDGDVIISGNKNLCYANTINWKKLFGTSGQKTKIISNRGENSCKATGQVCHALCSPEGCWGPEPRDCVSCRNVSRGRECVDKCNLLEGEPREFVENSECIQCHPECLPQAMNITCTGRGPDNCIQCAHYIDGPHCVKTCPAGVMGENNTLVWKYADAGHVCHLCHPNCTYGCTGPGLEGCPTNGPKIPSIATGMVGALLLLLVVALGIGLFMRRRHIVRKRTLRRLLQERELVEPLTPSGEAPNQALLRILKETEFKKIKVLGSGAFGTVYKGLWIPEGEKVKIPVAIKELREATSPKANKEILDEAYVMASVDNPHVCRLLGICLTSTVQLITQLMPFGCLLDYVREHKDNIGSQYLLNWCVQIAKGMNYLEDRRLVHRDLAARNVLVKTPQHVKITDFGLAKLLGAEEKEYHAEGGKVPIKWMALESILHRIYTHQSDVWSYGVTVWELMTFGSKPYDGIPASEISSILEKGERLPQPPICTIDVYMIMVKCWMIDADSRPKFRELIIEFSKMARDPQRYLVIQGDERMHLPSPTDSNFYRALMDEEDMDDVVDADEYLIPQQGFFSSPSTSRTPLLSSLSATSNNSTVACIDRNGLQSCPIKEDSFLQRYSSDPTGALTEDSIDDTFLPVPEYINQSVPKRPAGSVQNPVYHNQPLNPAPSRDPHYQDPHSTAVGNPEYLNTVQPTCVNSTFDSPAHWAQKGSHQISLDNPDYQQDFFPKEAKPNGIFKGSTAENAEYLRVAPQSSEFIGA

Epidermal growth factor receptor (Homo sapiens, UniProt P00533, L858R/T790M), sequence (P00533 25-1210 T790M/L858R limits assumed): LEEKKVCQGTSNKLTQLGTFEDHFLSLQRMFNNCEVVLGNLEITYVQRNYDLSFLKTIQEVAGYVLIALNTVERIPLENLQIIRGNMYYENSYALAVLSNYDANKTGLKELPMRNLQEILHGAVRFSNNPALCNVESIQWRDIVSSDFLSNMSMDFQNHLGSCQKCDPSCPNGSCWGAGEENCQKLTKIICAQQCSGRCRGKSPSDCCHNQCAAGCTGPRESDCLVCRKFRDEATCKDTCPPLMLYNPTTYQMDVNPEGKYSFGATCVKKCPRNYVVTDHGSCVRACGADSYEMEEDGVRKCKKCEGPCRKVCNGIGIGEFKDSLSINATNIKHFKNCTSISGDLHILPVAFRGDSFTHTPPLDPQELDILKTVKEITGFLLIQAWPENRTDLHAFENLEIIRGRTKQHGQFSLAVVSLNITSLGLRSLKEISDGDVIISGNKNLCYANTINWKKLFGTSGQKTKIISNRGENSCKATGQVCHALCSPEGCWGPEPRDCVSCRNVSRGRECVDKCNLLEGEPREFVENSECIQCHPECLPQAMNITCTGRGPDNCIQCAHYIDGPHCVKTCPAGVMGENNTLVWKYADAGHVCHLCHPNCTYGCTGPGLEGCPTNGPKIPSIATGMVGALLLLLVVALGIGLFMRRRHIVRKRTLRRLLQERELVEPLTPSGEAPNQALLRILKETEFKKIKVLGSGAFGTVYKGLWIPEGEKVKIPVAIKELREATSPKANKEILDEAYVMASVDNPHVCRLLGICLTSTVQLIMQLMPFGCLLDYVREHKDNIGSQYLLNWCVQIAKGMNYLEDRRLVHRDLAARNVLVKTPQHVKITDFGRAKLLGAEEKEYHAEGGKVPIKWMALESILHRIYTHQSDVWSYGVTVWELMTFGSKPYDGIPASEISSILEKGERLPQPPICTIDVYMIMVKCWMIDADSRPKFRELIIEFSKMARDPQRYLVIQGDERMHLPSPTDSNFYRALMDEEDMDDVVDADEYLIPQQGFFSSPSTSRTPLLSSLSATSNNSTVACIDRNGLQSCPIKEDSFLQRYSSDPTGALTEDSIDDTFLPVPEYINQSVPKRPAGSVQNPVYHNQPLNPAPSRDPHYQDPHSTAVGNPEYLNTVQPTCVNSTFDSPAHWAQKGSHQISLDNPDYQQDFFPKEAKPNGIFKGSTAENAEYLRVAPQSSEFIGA
Epidermal growth factor receptor (Homo sapiens, UniProt P00533, DELE746/T790M), sequence (P00533 whole entry E746del/T790M, looked up): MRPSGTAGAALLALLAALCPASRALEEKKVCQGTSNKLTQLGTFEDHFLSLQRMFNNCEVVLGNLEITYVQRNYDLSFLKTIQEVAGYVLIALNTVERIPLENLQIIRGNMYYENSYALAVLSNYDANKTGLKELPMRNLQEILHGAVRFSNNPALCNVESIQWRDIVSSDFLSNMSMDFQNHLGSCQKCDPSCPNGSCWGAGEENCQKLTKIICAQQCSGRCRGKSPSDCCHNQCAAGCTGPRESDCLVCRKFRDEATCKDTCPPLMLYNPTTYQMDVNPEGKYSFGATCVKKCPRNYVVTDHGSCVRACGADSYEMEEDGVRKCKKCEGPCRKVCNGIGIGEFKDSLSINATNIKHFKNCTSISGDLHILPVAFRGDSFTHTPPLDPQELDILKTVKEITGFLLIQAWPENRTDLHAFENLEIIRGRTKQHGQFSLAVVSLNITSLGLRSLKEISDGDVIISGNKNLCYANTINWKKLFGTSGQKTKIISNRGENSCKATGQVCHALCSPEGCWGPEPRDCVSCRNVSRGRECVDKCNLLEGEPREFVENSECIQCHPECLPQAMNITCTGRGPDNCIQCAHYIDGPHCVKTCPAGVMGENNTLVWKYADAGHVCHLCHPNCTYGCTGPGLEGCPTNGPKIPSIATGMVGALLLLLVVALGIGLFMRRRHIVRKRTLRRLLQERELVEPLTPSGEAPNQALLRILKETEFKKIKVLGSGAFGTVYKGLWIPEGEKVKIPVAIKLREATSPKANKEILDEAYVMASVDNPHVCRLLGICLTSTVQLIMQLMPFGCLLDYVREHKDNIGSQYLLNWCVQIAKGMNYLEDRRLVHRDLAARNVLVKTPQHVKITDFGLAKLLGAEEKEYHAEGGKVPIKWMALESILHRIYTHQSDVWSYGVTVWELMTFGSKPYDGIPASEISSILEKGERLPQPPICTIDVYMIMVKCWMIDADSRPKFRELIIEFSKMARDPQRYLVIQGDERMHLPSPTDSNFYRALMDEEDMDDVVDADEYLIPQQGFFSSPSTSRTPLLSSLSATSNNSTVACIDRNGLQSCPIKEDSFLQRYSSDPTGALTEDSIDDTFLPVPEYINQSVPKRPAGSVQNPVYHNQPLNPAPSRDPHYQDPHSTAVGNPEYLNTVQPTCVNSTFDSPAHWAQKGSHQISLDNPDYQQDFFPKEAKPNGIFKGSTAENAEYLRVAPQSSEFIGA
Epidermal growth factor receptor (Homo sapiens, UniProt P00533, T790M), sequence (P00533 25-1210 T790M limits assumed): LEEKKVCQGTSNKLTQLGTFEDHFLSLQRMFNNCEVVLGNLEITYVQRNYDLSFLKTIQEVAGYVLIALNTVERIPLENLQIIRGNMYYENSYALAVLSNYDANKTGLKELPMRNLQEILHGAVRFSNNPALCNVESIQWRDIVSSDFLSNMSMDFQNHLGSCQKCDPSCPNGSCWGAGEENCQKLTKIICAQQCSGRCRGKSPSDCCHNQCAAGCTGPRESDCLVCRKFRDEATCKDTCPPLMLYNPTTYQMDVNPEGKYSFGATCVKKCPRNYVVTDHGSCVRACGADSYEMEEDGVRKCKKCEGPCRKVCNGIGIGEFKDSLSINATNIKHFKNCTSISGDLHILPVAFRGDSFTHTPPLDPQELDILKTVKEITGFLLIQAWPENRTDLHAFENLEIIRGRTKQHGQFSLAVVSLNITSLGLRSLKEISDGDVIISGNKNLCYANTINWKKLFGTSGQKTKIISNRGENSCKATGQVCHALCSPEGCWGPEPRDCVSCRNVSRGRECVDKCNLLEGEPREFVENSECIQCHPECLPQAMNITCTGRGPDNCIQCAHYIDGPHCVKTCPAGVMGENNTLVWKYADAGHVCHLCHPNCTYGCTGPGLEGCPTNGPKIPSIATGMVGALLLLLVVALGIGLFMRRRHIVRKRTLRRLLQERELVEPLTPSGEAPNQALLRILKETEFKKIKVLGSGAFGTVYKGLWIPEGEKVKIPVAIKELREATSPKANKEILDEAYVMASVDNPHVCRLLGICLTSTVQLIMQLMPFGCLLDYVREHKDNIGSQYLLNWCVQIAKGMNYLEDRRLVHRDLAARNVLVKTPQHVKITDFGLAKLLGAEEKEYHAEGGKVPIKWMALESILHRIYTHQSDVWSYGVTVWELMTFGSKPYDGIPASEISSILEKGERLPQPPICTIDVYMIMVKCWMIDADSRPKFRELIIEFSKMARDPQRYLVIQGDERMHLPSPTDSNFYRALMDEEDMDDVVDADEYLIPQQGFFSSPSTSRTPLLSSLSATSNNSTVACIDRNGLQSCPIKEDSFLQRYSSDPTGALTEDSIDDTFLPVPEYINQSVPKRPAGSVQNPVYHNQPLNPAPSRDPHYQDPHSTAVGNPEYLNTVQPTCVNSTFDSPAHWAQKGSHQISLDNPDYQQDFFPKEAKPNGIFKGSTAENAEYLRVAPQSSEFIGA

SMILES: C=CC(=O)Nc1cccc(Oc2nc(Nc3ccc(N4CCN(C)CC4)cc3OC)ncc2Cl)c1
- IC50 [1]: 2.95 µM
- IC50 [2]: 0.058 µM
- IC50 [3]: 1.87 µM

SMILES: COc1ccc(/C(C)=N/Nc2ncc(Cl)c(Nc3cccc(NC(=O)/C=C/CN(C)C)c3)n2)cc1
- IC50 [1]: 6.83 µM
- IC50 [2]: 0.99 µM
- IC50 [3]: 7.12 µM

SMILES: COc1ccc(/C=N/Nc2ncc(Cl)c(Nc3cccc(NC(=O)/C=C/CN(C)C)c3)n2)cc1
- IC50 [1]: 4.82 µM
- IC50 [2]: 1.58 µM
- IC50 [3]: 6.24 µM

SMILES: C=CC(=O)Nc1cccc(Nc2nc(N/N=C/c3ccccc3F)ncc2Cl)c1
- IC50 [1]: 3.5 µM
- IC50 [2]: 0.29 µM
- IC50 [4]: 1.51 µM
- IC50 [5]: 4.74 µM
- IC50 [3]: 6.06 µM
- IC50 [6]: 1.91 µM
- IC50 [7]: > 20 µM

SMILES: C/C(=N\Nc1ncc(Cl)c(Nc2cccc(NC(=O)/C=C/CN(C)C)c2)n1)c1ccc(F)cc1
- IC50 [1]: 10.2 µM
- IC50 [2]: 1.16 µM
- IC50 [4]: 2.35 µM
- IC50 [3]: 8.96 µM
- IC50 [7]: 15.3 µM

SMILES: COc1cccc(/C(C)=N/Nc2ncc(Cl)c(Nc3cccc(NC(=O)/C=C/CN(C)C)c3)n2)c1
- IC50 [1]: 3.87 µM
- IC50 [2]: 0.91 µM
- IC50 [3]: 11.4 µM

SMILES: C=CC(=O)Nc1cccc(Nc2nc(NNC(=O)c3ccc(OC)cc3)ncc2Cl)c1
- IC50 [2]: 8.46 µM
- IC50 [3]: 26 µM

SMILES: C=CC(=O)Nc1cccc(Nc2nc(N/N=C(\C)c3ccc(F)cc3F)ncc2Cl)c1
- IC50 [1]: 4.36 µM
- IC50 [2]: 0.3 µM
- IC50 [4]: 2.27 µM
- IC50 [3]: 1.63 µM
- IC50 [7]: 11.8 µM

SMILES: C=CC(=O)Nc1cccc(Nc2nc(N/N=C(\C)c3ccc(OC)cc3)ncc2Cl)c1
- IC50 [1]: 4.56 µM
- IC50 [2]: 1.06 µM
- IC50 [3]: 7.71 µM

SMILES: CN(C)C/C=C/C(=O)Nc1cccc(Nc2nc(N/N=C/c3ccncc3)ncc2Cl)c1
- IC50 [1]: 25.2 µM
- IC50 [2]: 4.13 µM
- IC50 [3]: 47.7 µM

SMILES: C=CC(=O)Nc1cccc(Nc2nc(N/N=C(\C)c3cccc(OC)c3)ncc2Cl)c1
- IC50 [1]: 8.99 µM
- IC50 [2]: 1.19 µM
- IC50 [3]: 10.3 µM

SMILES: C=CC(=O)Nc1cccc(Nc2nc(N/N=C/c3ccc(F)cc3)ncc2Cl)c1
- IC50 [1]: 6.34 µM
- IC50 [2]: 0.43 µM
- IC50 [4]: 0.86 µM
- IC50 [5]: 1.12 µM
- IC50 [3]: 10.4 µM
- IC50 [6]: 0.57 µM
- IC50 [7]: > 20 µM

SMILES: C=CC(=O)Nc1cccc(Nc2nc(N/N=C/c3ccc(F)cc3F)ncc2Cl)c1
- IC50 [1]: 4.76 µM
- IC50 [2]: 0.38 µM
- IC50 [4]: 11.6 µM
- IC50 [3]: 11.2 µM
- IC50 [7]: > 20 µM

SMILES: CN(C)C/C=C/C(=O)Nc1cccc(Nc2nc(N/N=C/c3c[nH]c4ccccc34)ncc2Cl)c1
- IC50 [1]: 9.68 µM
- IC50 [2]: 5.45 µM
- IC50 [4]: > 20 µM
- IC50 [3]: 28.7 µM
- IC50 [7]: > 20 µM

SMILES: C=CC(=O)Nc1cccc(Nc2nc(NNC(=O)c3ccc(F)cc3)ncc2Cl)c1
- IC50 [2]: 5.31 µM
- IC50 [3]: 31 µM

SMILES: C/C(=N\Nc1ncc(Cl)c(Nc2cccc(NC(=O)/C=C/CN(C)C)c2)n1)c1ccc(F)cc1F
- IC50 [1]: 3.46 µM
- IC50 [2]: 0.48 µM
- IC50 [4]: 0.72 µM
- IC50 [5]: 0.82 µM
- IC50 [3]: 5.57 µM
- IC50 [6]: 1.25 µM
- IC50 [7]: > 20 µM

SMILES: CN(C)C/C=C/C(=O)Nc1cccc(Nc2nc(N/N=C/c3cn(Cc4ccccc4)c4ccccc34)ncc2Cl)c1
- IC50 [1]: 2.12 µM
- IC50 [2]: 0.26 µM
- IC50 [4]: 0.88 µM
- IC50 [5]: 0.79 µM
- IC50 [3]: 2.91 µM
- IC50 [6]: 0.76 µM
- IC50 [7]: > 20 µM

SMILES: C=CC(=O)Nc1cccc(Nc2nc(N/N=C(\C)c3ccc(F)cc3)ncc2Cl)c1
- IC50 [1]: 5.05 µM
- IC50 [2]: 0.39 µM
- IC50 [4]: 1.68 µM
- IC50 [5]: 2.53 µM
- IC50 [3]: 8.2 µM
- IC50 [6]: 1.29 µM
- IC50 [7]: > 20 µM

SMILES: C/C(=N\Nc1ncc(Cl)c(Nc2cccc(NC(=O)/C=C/CN(C)C)c2)n1)c1ccccn1
- IC50 [1]: 0.12 µM
- IC50 [2]: 0.077 µM
- IC50 [4]: 2.38 µM
- IC50 [3]: 0.83 µM
- IC50 [7]: > 20 µM

SMILES: C/C(=N\Nc1ncc(Cl)c(Nc2cccc(NC(=O)/C=C/CN(C)C)c2)n1)c1ccncc1
- IC50 [1]: 10.9 µM
- IC50 [2]: 6.24 µM
- IC50 [3]: 34.9 µM

SMILES: C=CC(=O)Nc1cccc(Nc2nc(N/N=C(\C)c3ccc(C)cc3)ncc2Cl)c1
- IC50 [1]: 3.21 µM
- IC50 [2]: 0.74 µM
- IC50 [4]: 5.67 µM
- IC50 [3]: 5.36 µM
- IC50 [7]: > 20 µM

SMILES: C=CC(=O)Nc1cccc(Nc2nc(N/N=C(\C)c3ccncc3)ncc2Cl)c1
- IC50 [1]: 12.8 µM
- IC50 [2]: 3.69 µM
- IC50 [3]: 28.7 µM

SMILES: C=CC(=O)Nc1cccc(Nc2nc(N/N=C/c3cn(Cc4ccccc4)c4ccccc34)ncc2Cl)c1
- IC50 [1]: 11 µM
- IC50 [2]: 1.35 µM
- IC50 [3]: > 100 µM

SMILES: C/C(=N\Nc1ncc(Cl)c(Nc2cccc(NC(=O)/C=C/CN(C)C)c2)n1)c1ccc(C)cc1
- IC50 [1]: 11.8 µM
- IC50 [2]: 1.37 µM
- IC50 [3]: 10.8 µM

SMILES: CN(C)C/C=C/C(=O)Nc1cccc(Nc2nc(N/N=C/c3ccc(F)cc3F)ncc2Cl)c1
- IC50 [1]: 2.92 µM
- IC50 [2]: 0.17 µM
- IC50 [4]: 2.52 µM
- IC50 [5]: 2.51 µM
- IC50 [3]: 2.17 µM
- IC50 [6]: 5.11 µM
- IC50 [7]: > 20 µM

SMILES: C/C(=N\Nc1ncc(Cl)c(Nc2cccc(NC(=O)/C=C/CN(C)C)c2)n1)c1cccnc1
- IC50 [1]: 9.66 µM
- IC50 [2]: 2.35 µM
- IC50 [4]: 4.32 µM
- IC50 [3]: 17.3 µM
- IC50 [7]: > 20 µM

SMILES: Nc1cccc(Nc2nc(N/N=C/c3ccc(F)cc3)ncc2Cl)c1
- IC50 [1]: 12.3 µM
- IC50 [2]: 9.92 µM
- IC50 [3]: 13.7 µM
